In patent US9834542B2, “LXR modulators” (BRISTOL-MYERS SQUIBB COMPANY, priority 2013, dated 2017):

Target: T1, LXRβ (Homo sapiens, UniProt P55055)
T1 construct: Co-transfection expression plasmids, comprising full-length LXRα (pCMX-h LXRα[…] or LXRβ (pCMX-hLXRβ)); expressed in transfected cells; host or cells: CV-1 African Green Monkey Kidney Cells
T1 sequence (P55055 1-460): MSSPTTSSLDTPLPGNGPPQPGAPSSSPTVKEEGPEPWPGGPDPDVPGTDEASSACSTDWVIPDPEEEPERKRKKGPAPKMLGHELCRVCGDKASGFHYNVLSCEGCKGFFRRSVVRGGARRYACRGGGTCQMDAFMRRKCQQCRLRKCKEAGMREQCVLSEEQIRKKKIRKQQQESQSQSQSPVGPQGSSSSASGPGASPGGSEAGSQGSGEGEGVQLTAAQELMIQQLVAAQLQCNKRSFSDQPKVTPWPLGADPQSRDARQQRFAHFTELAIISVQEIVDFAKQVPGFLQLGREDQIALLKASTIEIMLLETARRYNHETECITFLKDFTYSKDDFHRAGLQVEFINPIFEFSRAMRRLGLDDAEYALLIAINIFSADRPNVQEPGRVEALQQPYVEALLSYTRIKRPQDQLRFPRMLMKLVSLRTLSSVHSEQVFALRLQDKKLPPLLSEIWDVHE
T1 sequence (P19793 1-462 partner): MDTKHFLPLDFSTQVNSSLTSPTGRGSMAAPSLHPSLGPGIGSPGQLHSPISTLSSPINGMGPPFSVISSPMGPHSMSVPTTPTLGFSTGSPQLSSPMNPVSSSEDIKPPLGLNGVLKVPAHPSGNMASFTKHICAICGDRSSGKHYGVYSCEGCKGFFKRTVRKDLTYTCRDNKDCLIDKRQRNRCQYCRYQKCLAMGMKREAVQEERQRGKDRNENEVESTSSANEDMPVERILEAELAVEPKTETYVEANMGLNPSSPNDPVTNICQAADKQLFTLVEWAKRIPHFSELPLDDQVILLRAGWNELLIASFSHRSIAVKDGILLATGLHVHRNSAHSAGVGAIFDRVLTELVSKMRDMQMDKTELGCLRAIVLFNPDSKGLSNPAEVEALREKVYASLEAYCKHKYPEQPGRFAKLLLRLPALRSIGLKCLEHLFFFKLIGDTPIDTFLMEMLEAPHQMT
Experiment: Co-transfection assay (LXRE luciferase reporter), LXRβ
Assay type: cell-based
Details: for EC50: CV-1 cells transfected with pCMX-hLXRβ and LXREx1-Tk-Luciferase, 20 hours incubation; for Emax: LXRβ co-transfection, relative to high control 1-(2,4-difluorobenzyl)-2-oxo-6-(4-phenoxyphenyl)-4-(trifluoromethyl)-1,2-dihydropyridine-3-carbonitrile, read-out: % Efficacy
Method in brief: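 Luciferase signal from an LXREx1-Tk reporter was measured after transfected CV-1 cells (full-length hLXRβ, endogenous RXR) were treated with compounds for 20 h at 37 °C, ≤0.5% DMSO. EC50 came from four-parameter fits of 11-point ½-log curves; % efficacy versus a reference agonist maximum.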

Compound | EC50 [nM] | Emax [%]
Cc1nc(C(F)(F)F)cn1-c1ccc(-c2cccc(S(C)(=O)=O)c2)cc1-c1ocnc1Cc1ccc(Cl)cc1 [Example 634, 4-(4-chlorobenzyl)-5-(4-(2-methyl-4-(trifluoromethyl)-1H-imidazol-1-yl)-3′-(methylsulfonyl)-[1,1′-biphenyl]-3-yl)oxazole] | 249 | 68
CS(=O)(=O)c1cccc(-c2ccc(-n3cc(C(F)(F)F)nc3C(F)F)c(-n3nncc3-c3ccc(OC(F)(F)F)cc3)c2)c1 [Example 226, 1-(4-(2-(difluoromethyl)-4-(trifluoromethyl)-1H-imidazol-1-yl)-3′-(methylsulfonyl)-[1,1′-biphenyl]-3-yl)-5-(4-(trifluoromethoxy)phenyl)-1H-1,2,3-triazole] | 677 | 92
COc1ccc(-c2ccc(-n3cc(C(F)(F)F)nc3C)c(-n3nncc3-c3ccc(OC(F)(F)F)cc3)c2)cc1S(C)(=O)=O [Example 94, 1-{4′-(methyloxy)-3′-(methylsulfonyl)-4-[2-methyl-4-(trifluoromethyl)-1H-imidazol-1-yl]biphenyl-3-yl}-5-{4-[(trifluoromethyl)oxy]phenyl}-1H-1,2,3-triazole] | 2340 | 71
Cc1nc(-c2cc(-c3cccc(S(C)(=O)=O)c3)ccc2-n2cc(C(F)(F)F)nc2C)c(-c2ccc(F)c(Cl)c2)o1 [Example 510, 5-(3-chloro-4-fluorophenyl)-2-methyl-4-(4-(2-methyl-4-(trifluoromethyl)-1H-imidazol-1-yl)-3′-(methylsulfonyl)biphenyl-3-yl)oxazole] | 61 | 76
Cc1nc(-c2cc(-c3cccc(S(C)(=O)=O)c3)ccc2-n2cc(C(F)(F)F)nc2C)c(-c2ccc(F)c(OC(F)F)c2)o1 [Example 460, 5-(3-(difluoromethoxy)-4-fluorophenyl)-2-methyl-4-(4-(2-methyl-4-(trifluoromethyl)-1H-imidazol-1-yl)-3′-(methylsulfonyl)biphenyl-3-yl)oxazole] | 550 | 64
Cc1nc(-c2ccc(OC(F)F)cc2)c(-c2cc(-c3cccc(S(C)(=O)=O)c3)ccc2-n2cc(C(F)(F)F)nc2C)o1 [Example 619, 4-(4-(difluoromethoxy)phenyl)-2-methyl-5-(4-(2-methyl-4-(trifluoromethyl)-1H-imidazol-1-yl)-3′-(methylsulfonyl)-[1,1′-biphenyl]-3-yl)oxazole] | 51 | 112
Cc1cc(-c2cc(-c3cccc(S(C)(=O)=O)c3)ccc2-n2cc(C(F)(F)F)nc2C)n(-c2ccc3c(c2)OC(F)(F)O3)n1 [Example 304, 1-(2,2-difluorobenzo[d][1,3]dioxol-5-yl)-3-methyl-5-(4-(2-methyl-4-(trifluoromethyl)-1H-imidazol-1-yl)-3′-(methylsulfonyl)-[1,1′-biphenyl]-3-yl)-1H-pyrazole] | 28 | 100
Cc1nc(-c2cc(-c3cccc(C(C)(C)C(N)=O)c3)ccc2-n2cc(C(F)(F)F)nc2C)c(-c2ccc(OC(F)F)cc2)o1 [Example 542, 2-(3′-(5-(4-(difluoromethoxy)phenyl)-2-methyloxazol-4-yl)-4′-(2-methyl-4-(trifluoromethyl)-1H-imidazol-1-yl)-[1,1′-biphenyl]-3-yl)-2-methylpropanamide] | 82 | 89
Cc1nc(C(F)(F)F)cn1-c1ccc(-c2cccc(S(C)(=O)=O)c2)cc1-n1nncc1Cc1cccc(Cl)c1 [Example 121, 5-[(3-chlorophenyl)methyl]-1-{3′-(methylsulfonyl)-4-[2-methyl-4-(trifluoromethyl)-1H-imidazol-1-yl]biphenyl-3-yl}-1H-1,2,3-triazole] | 651 | 100
Cc1nc(C(F)(F)F)cn1-c1ccc(-c2cccc(S(C)(=O)=O)c2)cc1-n1nncc1Cc1ccc(OC(F)(F)F)cc1 [Example 118, 1-{3′-(methylsulfonyl)-4-[2-methyl-4-(trifluoromethyl)-1H-imidazol-1-yl]biphenyl-3-yl}-5-({4-[(trifluoromethyl)oxy]phen-yl}methyl)-1H-1,2,3-triazole] | 1040 | 61
Cc1nc(-c2cc(-c3cc(F)c(CCO)c(S(C)(=O)=O)c3)ccc2-n2cc(C(F)(F)F)nc2C)c(-c2ccc(OC(F)(F)F)cc2)o1 [Example 529, 2-(3-fluoro-4′-(2-methyl-4-(trifluoromethyl)-1H-imidazol-1-yl)-3′-(2-methyl-5-(4-(trifluoromethoxy)phenyl)oxazol-4-yl)-5-(methylsulfonyl)-[1,1′-biphenyl]-4-yl)ethanol] | 54 | 101
Cc1nc(C(F)(F)F)cn1-c1ccc(-c2cc(F)c(CO)c(S(C)(=O)=O)c2)cc1-n1nncc1-c1ccc(OC(F)(F)F)c(F)c1 [Example 56, {3-fluoro-3′-(5-{3-fluoro-4-[(trifluoromethyl)oxy]phenyl}-1H-1,2,3-triazol-1-yl)-5-(methylsulfonyl)-4′-[2-methyl-4-(trifluoromethyl)-1H-imidazol-1-yl]biphenyl-4-yl}methanol] | 133 | 101
Cc1nc(C(F)(F)F)cn1-c1c(F)cc(-c2ccc(CO)c(S(C)(=O)=O)c2)cc1-n1nncc1-c1ccc(OC(F)(F)F)cc1 [Example 203, [3′-fluoro-3-(methylsulfonyl)-4′-[2-methyl-4-(trifluoromethyl)-1H-imidazol-1-yl]-5′-(5-{4-[(trifluoromethyl)oxy]phenyl}-1H-1,2,3-triazol-1-yl)biphenyl-4-yl]methanol] | 127 | 71
Cc1nc(C(F)(F)F)cn1-c1ccc(-c2cccc(S(C)(=O)=O)c2)cc1-c1nc(C2CC2)cn1-c1ccc2c(c1)OC(F)(F)O2 [Example 643, 4-cyclopropyl-1-(2,2-difluorobenzo[d][1,3]dioxol-5-yl)-2-(4-(2-methyl-4-(trifluoromethyl)-1H-imidazol-1-yl)-3′-(methylsulfonyl)biphenyl-3-yl)-1H-imidazole] | 341 | 84
Cc1nc(-c2cc(-c3cc(F)c(CO)c(S(C)(=O)=O)c3)ccc2-n2cc(C(F)(F)F)nc2C)c(-c2ccc(F)c(Cl)c2)o1 [Example 509, (3′-(5-(3-chloro-4-fluorophenyl)-2-methyloxazol-4-yl)-3-fluoro-4′-(2-methyl-4-(trifluoromethyl)-1H-imidazol-1-yl)-5-(methylsulfonyl)biphenyl-4-yl)methanol] | 58 | 70
Cc1nc(-c2cc(-c3cc(F)c(CO)c(S(C)(=O)=O)c3)ccc2-n2cc(C(F)(F)F)nc2C)c(-c2cc(F)cc(F)c2)o1 [Example 448, (3′-(5-(3,5-difluorophenyl)-2-methyloxazol-4-yl)-3-fluoro-4′-(2-methyl-4-(trifluoromethyl)-1H-imidazol-1-yl)-5-(methylsulfonyl)biphenyl-4-yl)methanol] | 96 | 58
CC(=O)c1ccc(-c2cnnn2-c2cc(-c3cccc(S(C)(=O)=O)c3)ccc2-n2cc(C(F)(F)F)nc2C)cc1 [Example 36, 1-[4-(1-{3′-(methylsulfonyl)-4-[2-methyl-4-(trifluoromethyl)-1H-imidazol-1-yl]biphenyl-3-yl}-1H-1,2,3-triazol-5-yl)phenyl]ethanone] | 724 | 60
COc1ccc(-c2cnnn2-c2cc(-c3cccc(S(C)(=O)=O)c3)ccc2-n2cc(C(F)(F)F)nc2C)c(OC)c1 [Example 93, 5-[2,4-bis(methyloxy)phenyl]-1-{3′-(methylsulfonyl)-4-[2-methyl-4-(trifluoromethyl)-1H-imidazol-1-yl]biphenyl-3-yl}-1H-1,2,3-triazole] | 2150 | 40
Cc1nc(-c2cc(-c3cc(F)c(CO)c(S(C)(=O)=O)c3)ccc2-n2cc(C(F)(F)F)nc2C)c(-c2ccc(N3CCCC3=O)cc2)o1 [Example 501] | 1620 | 38
CNS(=O)(=O)c1cccc(-c2ccc(-n3cc(C(F)(F)F)nc3C)c(-c3ocnc3-c3ccc(OC(F)(F)F)cc3)c2)c1 [Example 357, N-methyl-4′-[2-methyl-4-(trifluoromethyl)-1H-imidazol-1-yl]-3′-(4-{4-[(trifluoromethyl)oxy]phenyl}-1,3-oxazol-5-yl)biphenyl-3-sulfonamide] | 106 | 98
